Test results from patent US9352013B2, “Uses of bremelanotide in therapy for female sexual dysfunction” (Palatin Technologies, Inc., priority 2012, dated 2016).
Where two headings read alike, the source gives them in different places.

Legend:
[1] = system: women diagnosed with sexual arousal disorder; conditions: single intranasal dose of 20 mg; cited from earlier work
[2] = system: female rats; conditions: cited from earlier work
[3] = Phase 2 intranasal trials: plasma concentration after 10 mg intranasal dose; type: in vivo; conditions: female, human, inhaled or intranasal, premenopausal, 30 minutes post dosing
Experimental: In the bremelanotide premenopausal arm, 42.5% of the subjects were discontinued due to hypertension, nausea, vomiting or myalgia. Subjects received a 10 mg intranasal dose of bremelanotide, with premenopausal subjects determined to have a mean plasma concentration of 88.5±51.9 ng/mL and a % CV of 58.6, and postmenopausal subjects determined to have a mean plasma concentration of 93.2±68.5 ng/mL and a % CV of 73.5. The minimum and maximum plasma concentration levels for all women at thirty minutes post dose range from 0.0 ng/mL to 207.0 ng/mL.
In the intranasal study, premenopausal women self-administered a 10 mg intranasal dose.

[4] = Adverse events with single-dose SC administration (Trials-14, -06, -10); type: in vivo, human
Experimental: Subcutaneous dosing was tested in 5 Phase 1 trials (3 in females, 2 in males) and one Phase 2 trial (males). The most common adverse events associated with single-dose SC bremelanotide administration (Trials-14, -06, and -10) were somnolence (30%), flushing (15%), nausea (19%), and vomiting (10%).

[5] = Pharmacokinetics of subcutaneous administration in healthy adult males; type: in vivo; conditions: male, human, plasma, sc, read-out: Median Tmax
Source text: Results of Tmax values were compared between subcutaneous administration (SC) and intranasal (IN) administration of various doses of bremelanotide, as shown in FIG. 1.

[6] = Single SC doses in male subjects with ED and preexisting hypertension: tolerability; type: in vivo, human; conditions: single subcutaneous doses of 4 and 6 mg
[7] = Example 1: pharmacokinetics after in-clinic subcutaneous dose; type: in vivo, human; conditions: for AUC(0-t) / Cmax: human, sc
Experimental: Ambulatory blood pressure monitoring was conducted following both placebo and randomized treatment group in-clinic administrations. Three periods of ambulatory blood pressure monitoring were included, the first period was from before to 24 hours after a single, in-clinic dose of placebo (to establish a baseline); the second and third periods occurred from before to 24 hours after each of 2 single, in-clinic doses of double-blind treatment, administered within 14 days of each other. Blood samples for pharmacokinetic analysis were collected before and at 0.5, 1.0, and 2.0 hours after each in-clinic bremelanotide single-dose treatment (double-blind only), to permit analysis of concentration-response relationships.
Mean pharmacokinetic parameters were determined by bremelanotide dose and visit, including Cmax determinations (the highest ng/mL concentration at either 0.5 or 1 hour post administration) and AUC determinations at two hours and, for a subset of subjects in each group, at four hours.
The Cmax for the mean curve was calculated by averaging the concentrations at each time point (0.5, 1, 2 and 4 hours), and this is shown in FIG. 3.

CCCC[C@H](NC(C)=O)C(=O)N[C@H]1CC(=O)NCCCC[C@@H](C(=O)O)NC(=O)[C@H](Cc2c[nH]c3ccccc23)NC(=O)[C@H](CCCNC(=N)N)NC(=O)[C@@H](Cc2ccccc2)NC(=O)[C@H](Cc2c[nH]cn2)NC1=O [bremelanotide, Ac-Nle-cyclo(-Asp-His-D-Phe-Arg-Trp-Lys)-OH]
Vaginal pulse amplitude measures compared to placebo [1]: without statistically relevant differences
Effect on appetitive sexual behavior [2]: selective pharmacological effect on appetitive sexual behavior was observed
Dopamine release in the medial preoptic area ([2]; subcutaneous injections): increasing dopamine release
Immediate-early gene product Fos in limbic and hypothalamic structures ([2]; subcutaneous injections): inducing
Cmax at 30 min ([3]; read-out: Cmax / plasma concentration, mean): 88.5 ± 51.9 ng/mL
Cmax at 30 min ([3]; read-out: Cmax, maximum): 207 ng/mL
Cmax at 30 min ([3]; read-out: Cmax, median): 81.1 ng/mL
Adverse event: flushing [4]: 15%
Adverse event: nausea [4]: 19%
Adverse event: somnolence [4]: 30%
Adverse event: vomiting [4]: 10%
Tmax [5]: 30 to 60 min
Tolerability [6]: improved tolerability
Cmax, Max ([7]; 1.75 mg SC, Visit 5): 115 ng/mL
Cmax, Min ([7]; 1.75 mg SC, Visit 5): 15 ng/mL
AUC(0-t) ([7]; blood, 0.75 mg, 0.75 mg SC, Visit 5, read-out: AUC(0-2h), Median): 52 ng·h/mL
AUC(0-t) ([7]; blood, 0.75 mg, 0.75 mg SC, Visit 5, read-out: AUC(0-4h), Median): 80 ng·h/mL
Cmax ([7]; blood, 0.75 mg, 0.75 mg SC, Visit 5, read-out: Cmax, Median): 36 ng/mL
AUC(0-t) ([7]; blood, 0.75 mg, 0.75 mg SC, Visit 7, read-out: AUC(0-2h), Mean): 53 ng·h/mL
AUC(0-t) ([7]; blood, 0.75 mg, 0.75 mg SC, Visit 7, read-out: AUC(0-2h), Median): 52 ng·h/mL
AUC(0-t) ([7]; blood, 0.75 mg, 0.75 mg SC, Visit 7, read-out: AUC(0-4h), Mean): 80 ng·h/mL
AUC(0-t) ([7]; blood, 0.75 mg, 0.75 mg SC, Visit 7, read-out: AUC(0-4h), Median): 79 ng·h/mL
Cmax ([7]; blood, 0.75 mg, 0.75 mg SC, Visit 7, read-out: Cmax, Median): 37 ng/mL
AUC(0-t) ([7]; blood, 1.25 mg, 1.25 mg SC, Visit 5, read-out: AUC(0-2h), Mean): 86 ng·h/mL
AUC(0-t) ([7]; blood, 1.25 mg, 1.25 mg SC, Visit 5, read-out: AUC(0-2h), Median): 81 ng·h/mL
AUC(0-t) ([7]; blood, 1.25 mg, 1.25 mg SC, Visit 5, read-out: AUC(0-4h), Mean): 138 ng·h/mL
AUC(0-t) ([7]; blood, 1.25 mg, 1.25 mg SC, Visit 5, read-out: AUC(0-4h), Median): 136 ng·h/mL
Cmax ([7]; blood, 1.25 mg, 1.25 mg SC, Visit 5, read-out: Cmax, Mean): 60 ng/mL
Cmax ([7]; blood, 1.25 mg, 1.25 mg SC, Visit 5, read-out: Cmax, Median): 56 ng/mL
AUC(0-t) ([7]; blood, 1.25 mg, 1.25 mg SC, Visit 7, read-out: AUC(0-2h), Mean): 84 ng·h/mL
AUC(0-t) ([7]; blood, 1.25 mg, 1.25 mg SC, Visit 7, read-out: AUC(0-2h), Median): 84 ng·h/mL
AUC(0-t) ([7]; blood, 1.25 mg, 1.25 mg SC, Visit 7, read-out: AUC(0-4h), Mean): 142 ng·h/mL
AUC(0-t) ([7]; blood, 1.25 mg, 1.25 mg SC, Visit 7, read-out: AUC(0-4h), Median): 144 ng·h/mL
Cmax ([7]; blood, 1.25 mg, 1.25 mg SC, Visit 7, read-out: Cmax, Mean): 60 ng/mL
Cmax ([7]; blood, 1.25 mg, 1.25 mg SC, Visit 7, read-out: Cmax, Median): 60 ng/mL
AUC(0-t) ([7]; in vivo, 0.75 mg, 0.75 mg SC, Visit 5, read-out: AUC(0-2h), Mean): 53 ng·h/mL
AUC(0-t) ([7]; in vivo, 0.75 mg, 0.75 mg SC, Visit 5, read-out: AUC(0-4h), Mean): 84 ng·h/mL
Cmax ([7]; in vivo, 0.75 mg, 0.75 mg SC, Visit 5, read-out: Cmax, Mean): 37 ng/mL
Cmax ([7]; in vivo, 0.75 mg, 0.75 mg SC, Visit 7, read-out: Cmax, Mean): 38 ng/mL
AUC(0-t) ([7]; in vivo, 1.75 mg, 1.75 mg SC, Visit 5, read-out: AUC(0-2h), Mean): 112 ng·h/mL
AUC(0-t) ([7]; in vivo, 1.75 mg, 1.75 mg SC, Visit 5, read-out: AUC(0-2h), Median): 112 ng·h/mL
AUC(0-t) ([7]; in vivo, 1.75 mg, 1.75 mg SC, Visit 5, read-out: AUC(0-4h), Mean): 178 ng·h/mL
AUC(0-t) ([7]; in vivo, 1.75 mg, 1.75 mg SC, Visit 5, read-out: AUC(0-4h), Median): 179 ng·h/mL
Cmax ([7]; in vivo, 1.75 mg, 1.75 mg SC, Visit 5, read-out: Cmax, Mean): 77 ng/mL
Cmax ([7]; in vivo, 1.75 mg, 1.75 mg SC, Visit 5, read-out: Cmax, Median): 78 ng/mL
AUC(0-t) ([7]; in vivo, 1.75 mg, 1.75 mg SC, Visit 7, read-out: AUC(0-2h), Mean): 112 ng·h/mL
AUC(0-t) ([7]; in vivo, 1.75 mg, 1.75 mg SC, Visit 7, read-out: AUC(0-2h), Median): 111 ng·h/mL
AUC(0-t) ([7]; in vivo, 1.75 mg, 1.75 mg SC, Visit 7, read-out: AUC(0-4h), Mean): 184 ng·h/mL
AUC(0-t) ([7]; in vivo, 1.75 mg, 1.75 mg SC, Visit 7, read-out: AUC(0-4h), Median): 180 ng·h/mL
Cmax ([7]; in vivo, 1.75 mg, 1.75 mg SC, Visit 7, read-out: Cmax, Mean): 78 ng/mL
Cmax ([7]; in vivo, 1.75 mg, 1.75 mg SC, Visit 7, read-out: Cmax, Median): 77 ng/mL
Cmax ([7]; in vivo, 1.75 mg, 1.75 mg subcutaneous dose, Example 1, read-out: Cmax, maximum): 115 ng/mL
Cmax ([7]; in vivo, 1.75 mg, 1.75 mg subcutaneous dose, Example 1, read-out: Cmax, mean): 77.2 ± 19.5 ng/mL
Cmax ([7]; in vivo, 1.75 mg, 1.75 mg subcutaneous dose, Example 1, read-out: Cmax, median): 78 ng/mL
Cmax ([7]; in vivo, 1.75 mg, 1.75 mg subcutaneous dose, Example 1, read-out: Cmax, minimum): 15 ng/mL
